Source: PubChem BioAssay AID248 (DTP/NCI, 2004)
Several values for one entry are separate records, joined by “and”; a condition that tells them apart may be missing. Equal entries are not always repeated. Inconclusive results and toxic doses are left out. Cut-off read from the data, not from the text of the source: active = T/C of 150% or more; inactive = T/C below 125%.

System: L1210 leukemia ip in BDF1 mice, survival T/C
Assay: NCI In Vivo Anticancer Drug Screen. Data for tumor model L1210 Leukemia (intraperitoneal) in B6D2F1 (BDF1) mice
Conditions: endpoint: mean survival time, higher = longer survival
Outline: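 Survival endpoint. Drug-treated group vs vehicle group, expressed as T divided by C. Tumor passaged by transplantation.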

[1] = dose: 100.0 mg/kg/injection, schedule: Q04DX002 (ip), vehicle: saline with Tween-80
[2] = dose: 200.0 mg/kg/injection, schedule: Q04DX002 (ip), vehicle: saline with Tween-80
[3] = dose: 400.0 mg/kg/injection, schedule: Q04DX002 (ip), vehicle: saline with Tween-80
[4] = dose: 100.0 mg/kg/injection, schedule: Q01DX009 (ip), vehicle: saline
[5] = dose: 7.5 mg/kg/injection, schedule: Q01DX Z (ip), vehicle: carboxymethylcellulose (CMC)
[6] = dose: 15.0 mg/kg/injection, schedule: Q01DX Z (ip), vehicle: carboxymethylcellulose (CMC)
[7] = dose: 50.0 mg/kg/injection, schedule: Q01DX001 (ip), vehicle: carboxymethylcellulose (CMC)
[8] = dose: 75.0 mg/kg/injection, schedule: Q01DX Z (ip), vehicle: carboxymethylcellulose (CMC)
[9] = dose: 100.0 mg/kg/injection, schedule: Q01DX001 (ip), vehicle: carboxymethylcellulose (CMC)
[10] = dose: 200.0 mg/kg/injection, schedule: Q01DX001 (ip), vehicle: carboxymethylcellulose (CMC)
[11] = dose: 100.0 mg/kg/injection, schedule: Q04DX003 (ip), vehicle: Klucel (hydroxypropylcellulose) (HPC)
[12] = dose: 200.0 mg/kg/injection, schedule: Q04DX003 (ip), vehicle: Klucel (hydroxypropylcellulose) (HPC)
[13] = dose: 50.0 mg/kg/injection, schedule: Q01DX009 (ip), vehicle: saline with Tween-80
[14] = dose: 100.0 mg/kg/injection, schedule: Q01DX009 (ip), vehicle: saline with Tween-80
[15] = dose: 100.0 mg/kg/injection, schedule: Q04DX003 (ip), vehicle: saline with Tween-80
[16] = dose: 200.0 mg/kg/injection, schedule: Q01DX009 (ip), vehicle: saline with Tween-80
[17] = dose: 200.0 mg/kg/injection, schedule: Q04DX003 (ip), vehicle: saline with Tween-80
[18] = dose: 400.0 mg/kg/injection, schedule: Q04DX003 (ip), vehicle: saline with Tween-80
[19] = dose: 100.0 mg/kg/injection, schedule: Q01DX009 (ip), vehicle: Klucel (hydroxypropylcellulose) (HPC)
[20] = dose: 400.0 mg/kg/injection, schedule: Q04DX003 (ip), vehicle: Klucel (hydroxypropylcellulose) (HPC)

Measured: T/C

CC(=O)C1(Cl)CCC(C(C)(C)C)CC1 (stereo not given)
inactive: [1] 111 % of control | [2] 103 % of control | [3] 103 % of control

COC(=O)C1(C(=O)OC)C2CC(C)=C(C)CC21 (stereo not given)
inactive: dose: 25.0 mg/kg/injection, schedule: Q01DX009 (ip), vehicle: saline 109 % of control | dose: 50.0 mg/kg/injection, schedule: Q01DX009 (ip), vehicle: saline 93 % of control | dose: 100.0 mg/kg/injection, schedule: Q01DX009 (ip), vehicle: acetone 90 % of control | [4] 104 % of control | dose: 200.0 mg/kg/injection, schedule: Q01DX009 (ip), vehicle: acetone 94 % of control | dose: 400.0 mg/kg/injection, schedule: Q01DX009 (ip), vehicle: acetone 87 % of control

O=C(NCCCCCCCCCNC(=O)Nc1ccc(C2=NCCCN2)cc1)Nc1ccc(C2=NCCCN2)cc1
inactive: dose: 3.75 mg/kg/injection, schedule: Q01DX Z (ip), vehicle: carboxymethylcellulose (CMC) 91 % of control | [5] 98 % of control | [6] 122 % of control

Fc1ccc(NC(=S)Nc2cc(Cl)cc(Cl)c2)cc1
inactive: [5] 96 % of control | [6] 93 % of control | dose: 30.0 mg/kg/injection, schedule: Q01DX Z (ip), vehicle: carboxymethylcellulose (CMC) 100 % of control | [7] 98 % of control | dose: 60.0 mg/kg/injection, schedule: Q01DX Z (ip), vehicle: carboxymethylcellulose (CMC) 87 % of control | [8] 87 % of control | [9] 93 % of control | [10] 95 % of control

O=C(CC(c1ccccc1)(c1ccccc1)c1ccccc1)c1ccccc1
inactive: [7] 98 % of control | [9] 93 % of control | [10] 90 % of control | dose: 400.0 mg/kg/injection, schedule: Q01DX001 (ip), vehicle: carboxymethylcellulose (CMC) 93 % of control

O=C1C=CC(=C(Br)Br)O1
inactive: dose: 12.5 mg/kg/injection, schedule: Q04DX003 (ip), vehicle: saline with Tween-80 92 % of control | dose: 12.5 mg/kg/injection, schedule: Q04DX003 (ip), vehicle: saline 97 % of control | dose: 25.0 mg/kg/injection, schedule: Q04DX003 (ip), vehicle: saline with Tween-80 103 % of control | dose: 25.0 mg/kg/injection, schedule: Q04DX003 (ip), vehicle: saline 95 % of control | dose: 50.0 mg/kg/injection, schedule: Q04DX003 (ip), vehicle: saline 92 % of control | dose: 100.0 mg/kg/injection, schedule: Q04DX003 (ip), vehicle: saline 98 % of control

CCCCC(=O)N/N=C/c1ccc(OC)c(OC)c1
inactive: dose: 100.0 mg/kg/injection, schedule: Q01DX001 (ip), vehicle: saline 100 % of control | dose: 200.0 mg/kg/injection, schedule: Q01DX001 (ip), vehicle: saline 94 % of control | dose: 400.0 mg/kg/injection, schedule: Q01DX001 (ip), vehicle: saline 91 % of control

CCOC(=O)CCCc1ccc(N/N=N/c2nc[nH]c2C(N)=O)cc1
inactive: dose: 25.0 mg/kg/injection, schedule: Q01DX Z (ip), vehicle: carboxymethylcellulose (CMC) 94 % of control | dose: 50.0 mg/kg/injection, schedule: Q01DX Z (ip), vehicle: carboxymethylcellulose (CMC) 88 % of control | [8] 88 % of control | dose: 100.0 mg/kg/injection, schedule: Q01DX Z (ip), vehicle: carboxymethylcellulose (CMC) 103 % of control | dose: 200.0 mg/kg/injection, schedule: Q01DX Z (ip), vehicle: carboxymethylcellulose (CMC) 88 % of control

Clc1ccc2[nH]ncc2c1
inactive: dose: 100.0 mg/kg/injection, schedule: Q04DX002 (ip), vehicle: Klucel (hydroxypropylcellulose) (HPC) 88 % of control | dose: 200.0 mg/kg/injection, schedule: Q04DX002 (ip), vehicle: Klucel (hydroxypropylcellulose) (HPC) 98 % of control | dose: 400.0 mg/kg/injection, schedule: Q04DX002 (ip), vehicle: Klucel (hydroxypropylcellulose) (HPC) 98 % of control

O=c1sc2ccccc2n1-c1ccccc1
inactive: [11] 96 % of control | [12] 93 % of control

Cc1ccc(C)c(C(=O)CCC(=O)O)c1
inactive: dose: 25.0 mg/kg/injection, schedule: Q01DX009 (ip), vehicle: saline with Tween-80 100 % of control | [13] 96 % of control | [14] 105 % of control | [4] 95 % of control | [15] 91 % of control | [16] 94 % of control | dose: 200.0 mg/kg/injection, schedule: Q01DX009 (ip), vehicle: saline 95 % of control | [17] 92 % of control | dose: 400.0 mg/kg/injection, schedule: Q01DX009 (ip), vehicle: saline 95 % of control | [18] 97 % of control

CC12CC(c3ccccc3)C(C)(C(c3ccccc3)=C1c1ccccc1)C2(C)O (stereo not given)
inactive: dose: 100.0 mg/kg/injection, schedule: Q01DX001 (ip), vehicle: saline with Tween-80 93 % of control | dose: 200.0 mg/kg/injection, schedule: Q01DX001 (ip), vehicle: saline with Tween-80 100 % of control | dose: 400.0 mg/kg/injection, schedule: Q01DX001 (ip), vehicle: saline with Tween-80 88 % of control

O=C(c1ccccc1)c1c2ccccc2c(C(=O)c2ccccc2)c2ccccc12
inactive: [19] 104 % of control | [11] 103 % of control | dose: 200.0 mg/kg/injection, schedule: Q01DX009 (ip), vehicle: Klucel (hydroxypropylcellulose) (HPC) 97 % of control | [12] 100 % of control | dose: 400.0 mg/kg/injection, schedule: Q01DX009 (ip), vehicle: Klucel (hydroxypropylcellulose) (HPC) 97 % of control | [20] 99 % of control

C#CC1(O)CCCCCC1
inactive: [1] 95 % of control | [2] 100 % of control | [3] 92 % of control

CCNC(=O)NC(=O)C(C)(C)Oc1ccc(Cl)cc1
inactive: [13] 103 % of control | [14] 92 % of control | [16] 96 % of control

CN(C)c1ccc(C=C2c3ccccc3-c3ccccc32)cc1
inactive: [11] 97 % of control | [12] 96 % of control | [20] 94 % of control

C=C[Si](C)(C=C)C=C
inactive: dose: 100.0 mg/kg/injection, schedule: Q01DX005 (ip), vehicle: saline 94 % of control | dose: 200.0 mg/kg/injection, schedule: Q01DX005 (ip), vehicle: saline 97 % of control | dose: 400.0 mg/kg/injection, schedule: Q01DX005 (ip), vehicle: saline 94 % of control

O=C(O)CNC(=O)c1ccc(NC(=S)Nc2ccccc2)cc1
inactive: dose: 25.0 mg/kg/injection, schedule: Q01DX009 (ip), vehicle: Klucel (hydroxypropylcellulose) (HPC) 90 % of control | dose: 50.0 mg/kg/injection, schedule: Q01DX009 (ip), vehicle: Klucel (hydroxypropylcellulose) (HPC) 88 % of control | [19] 108 % of control and 91 % of control

COc1ccc(OCC(O)CN2CCN(c3ccc(Cl)cc3)CC2)cc1 (stereo not given)
inactive: [15] 93 % of control | [17] 90 % of control | [18] 98 % of control
